# Experimental data published in patent US12509449B2, “Anthelmintic compounds comprising a quinoline structure” (Intervet Inc., priority 2019, dated 2025).
# Columns and labels:
# Ascaridia galli L3 = experiment: In vitro assay Ascaridia galli larval stage 3, minimum effective concentration; type: cell-based; details: 20 larvae per well, microscopic examination, read-out: MEC (minimum effective concentration) against Ascaridia galli L3
# Source text: […] galli (intestinal roundworm of chicken), larval stage 3 (“L3”); and Oesophagostumum dentatum (nodular worm of swine), larval stages 3 and 4 (respectively “L3” and “L4”) where suspended in a nutrient medium and distributed to 96 well plates with 20 larvae per well. The wells were spiked DMSO solutions of the compounds with declining concentration.
# [1] = molecular target: T1, human Maxi K channel (BK channel), KCNMA1 (KCa1.1) and beta1 (KCNMB1) subunits (Homo sapiens, UniProt Q12791); experiment: Agonistic activity at the human Maxi K channel (BK channel), membrane potential (FLIPR) in transfected CHO K1 cells; type: cell-based; details: membrane potential dye, 70 mM KCl
# T1 construct: expressed in transfected cells; host or cells: CHO K1
# T1 sequence (Q12791 1-1178 isoform Q12791-5): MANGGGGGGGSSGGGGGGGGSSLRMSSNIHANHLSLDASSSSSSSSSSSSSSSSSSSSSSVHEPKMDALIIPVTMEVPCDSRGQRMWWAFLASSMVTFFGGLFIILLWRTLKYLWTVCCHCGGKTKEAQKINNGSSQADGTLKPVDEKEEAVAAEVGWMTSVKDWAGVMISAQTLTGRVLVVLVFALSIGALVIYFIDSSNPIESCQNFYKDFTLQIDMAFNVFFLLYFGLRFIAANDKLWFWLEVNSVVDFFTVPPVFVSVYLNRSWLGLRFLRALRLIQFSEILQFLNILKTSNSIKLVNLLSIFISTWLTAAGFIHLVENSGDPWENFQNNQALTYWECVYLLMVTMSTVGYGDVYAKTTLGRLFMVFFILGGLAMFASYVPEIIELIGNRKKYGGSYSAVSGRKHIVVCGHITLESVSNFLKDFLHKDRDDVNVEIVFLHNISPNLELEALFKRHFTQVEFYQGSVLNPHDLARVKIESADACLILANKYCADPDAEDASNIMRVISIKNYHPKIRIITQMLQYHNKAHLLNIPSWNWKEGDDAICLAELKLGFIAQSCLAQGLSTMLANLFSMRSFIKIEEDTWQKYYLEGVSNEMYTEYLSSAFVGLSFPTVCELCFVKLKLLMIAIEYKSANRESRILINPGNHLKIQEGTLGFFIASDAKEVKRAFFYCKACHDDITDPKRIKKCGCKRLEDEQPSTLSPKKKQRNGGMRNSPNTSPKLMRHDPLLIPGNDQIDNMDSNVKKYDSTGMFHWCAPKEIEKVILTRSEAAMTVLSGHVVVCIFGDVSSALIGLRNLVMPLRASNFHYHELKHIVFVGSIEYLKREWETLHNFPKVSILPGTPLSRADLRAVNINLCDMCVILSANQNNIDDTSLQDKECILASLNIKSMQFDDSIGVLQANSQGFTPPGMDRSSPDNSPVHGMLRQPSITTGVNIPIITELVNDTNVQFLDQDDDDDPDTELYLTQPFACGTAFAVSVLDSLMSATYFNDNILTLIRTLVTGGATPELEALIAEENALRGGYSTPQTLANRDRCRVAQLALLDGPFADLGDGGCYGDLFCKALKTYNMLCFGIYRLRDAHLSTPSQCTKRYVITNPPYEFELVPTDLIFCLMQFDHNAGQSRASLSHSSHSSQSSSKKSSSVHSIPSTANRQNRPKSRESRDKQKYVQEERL
# T1 sequence (Q16558 whole entry partner): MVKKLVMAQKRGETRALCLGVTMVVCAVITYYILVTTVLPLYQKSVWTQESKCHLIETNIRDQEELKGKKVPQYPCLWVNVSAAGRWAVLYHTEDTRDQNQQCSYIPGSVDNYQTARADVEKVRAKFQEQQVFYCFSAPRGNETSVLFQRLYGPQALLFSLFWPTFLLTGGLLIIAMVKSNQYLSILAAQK
# Source text: A CHO K1 cell line was stably transfected with the KCNMA1 (KCa1.1, U11058) and beta1 (KCNMB1) subunits of the human Maxi K channel (Ponte et al, Molecular Pharmacology 2012, 81(4), 567-577).
# The complete measurement takes 150 s.
# [2] = molecular target: Caenorhabditis elegans slo-1a (Caenorhabditis elegans, UniProt Q95V25); experiment: Agonistic activity at C. elegans Slo-1a, membrane potential (FLIPR) in transfected CHO K1 cells; details: EC50 agonistic activity at C. elegans Slo-1a, membrane potential dye, 70 mM KCl
# Caenorhabditis elegans slo-1a, sequence (Q95V25 whole entry): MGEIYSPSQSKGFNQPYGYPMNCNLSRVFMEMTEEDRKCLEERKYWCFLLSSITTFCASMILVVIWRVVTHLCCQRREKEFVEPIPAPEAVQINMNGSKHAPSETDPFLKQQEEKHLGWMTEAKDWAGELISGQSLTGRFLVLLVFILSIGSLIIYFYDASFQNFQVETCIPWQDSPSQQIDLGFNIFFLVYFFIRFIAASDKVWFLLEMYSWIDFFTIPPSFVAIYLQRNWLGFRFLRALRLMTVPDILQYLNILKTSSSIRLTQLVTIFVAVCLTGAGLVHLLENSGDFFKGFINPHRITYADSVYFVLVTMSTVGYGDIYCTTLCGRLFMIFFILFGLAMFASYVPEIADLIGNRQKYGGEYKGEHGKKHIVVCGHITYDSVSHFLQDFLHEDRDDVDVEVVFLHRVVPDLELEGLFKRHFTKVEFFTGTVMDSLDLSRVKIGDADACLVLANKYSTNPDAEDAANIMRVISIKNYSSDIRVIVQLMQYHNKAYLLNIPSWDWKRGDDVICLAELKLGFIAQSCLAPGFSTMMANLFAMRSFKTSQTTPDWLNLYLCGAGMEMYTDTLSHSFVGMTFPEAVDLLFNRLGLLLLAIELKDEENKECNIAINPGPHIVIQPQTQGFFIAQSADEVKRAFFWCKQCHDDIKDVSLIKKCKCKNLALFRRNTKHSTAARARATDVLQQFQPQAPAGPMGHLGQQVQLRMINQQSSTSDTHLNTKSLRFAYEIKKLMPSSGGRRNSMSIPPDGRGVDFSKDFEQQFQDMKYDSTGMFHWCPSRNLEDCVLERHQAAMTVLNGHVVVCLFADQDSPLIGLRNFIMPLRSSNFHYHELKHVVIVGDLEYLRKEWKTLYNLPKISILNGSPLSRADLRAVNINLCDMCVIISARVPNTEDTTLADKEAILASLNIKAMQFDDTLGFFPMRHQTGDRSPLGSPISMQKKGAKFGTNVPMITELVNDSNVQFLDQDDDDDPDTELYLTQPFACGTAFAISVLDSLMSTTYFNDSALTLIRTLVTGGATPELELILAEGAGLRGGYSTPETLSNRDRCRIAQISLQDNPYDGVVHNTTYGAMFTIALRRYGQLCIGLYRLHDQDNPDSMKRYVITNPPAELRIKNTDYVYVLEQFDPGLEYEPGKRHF
EC50 [1],EC50 [2],SMILES,minimal effective concentration (Ascaridia galli L3)
> 30 µM,,CC(C(=O)Nc1cnc2c(-c3cccc(Cl)c3Cl)cccc2c1N(C)C)c1cccc(N(C)C)c1 (centres unmarked) [Compound 50],≤ 50 µM
> 30 µM,,CC(C)Oc1c(NC(=O)C2CCCc3ccccc32)cnc2c(-c3cccc(Cl)c3Cl)cccc12 (centres unmarked) [Compound 59],
> 30 µM,< 10 µM,CN(C)c1c(NC(=O)c2cccc3ccccc23)cnc2c(-c3cc(Cl)cc(Cl)c3)cccc12 [Compound 153],
1 to 10 µM,< 1 µM,O=C(Nc1cnc2c(-c3cccc(Cl)c3Cl)cccc2c1N1CCOCC1)C1CCc2ccccc21 (centres unmarked) [Compound 20],
> 30 µM,,"CC(C)Oc1c(NC(=O)C2CCCc3ccccc32)cnc2c(-c3cc(Cl)cc(Cl)c3)cccc12 (centres unmarked) [Compound 76, N-(8-(3,5-dichlorophenyl)-4-isopropoxyquinolin-3-yl)-1,2,3,4-tetrahydro-naphthalene-1-carboxamide]",≤ 50 µM
> 30 µM,< 10 µM,O=C(Nc1cnc2c(-c3cc(Cl)cc(Cl)c3)cccc2c1N1CCOCC1)C1CCOc2ccccc21 (centres unmarked) [Compound 7],
> 30 µM,< 1 µM,CCOc1c(NC(=O)c2cccc3ccccc23)cnc2c(-c3cccc(Cl)c3Cl)c(F)ccc12 [Compound 149],
> 30 µM,,O=C(Nc1cnc2c(-c3cc(Cl)cc(Cl)c3)cccc2c1O)c1cccc2ccccc12 [Compound 66],≤ 50 µM
> 30 µM,< 1 µM,CCOc1c(NC(=O)[C@H]2CCCc3ccccc32)cnc2c(-c3cccc(Cl)c3Cl)cccc12 [Compound 54],
> 30 µM,,O=C(Nc1cnc2c(-c3cc(Cl)cc(Cl)c3)cccc2c1O)C1CCOc2ccccc21 (centres unmarked) [Compound 64],
> 30 µM,< 1 µM,CCc1c(NC(=O)[C@H]2CCCc3ccccc32)cnc2c(-c3cccc(Cl)c3Cl)cccc12 [Compound 204],
> 30 µM,< 1 µM,CC(C)c1c(NC(=O)C2CCCc3ccccc32)cnc2c(-c3cccc(Cl)c3Cl)cccc12 (centres unmarked) [Compound 109],
> 30 µM,,Cc1c(NC(=O)c2ccnc3ccccc23)cnc2c(-c3cccc(Cl)c3Cl)cccc12 [Compound 106],
> 30 µM,< 1 µM,COc1c(NC(=O)[C@H]2CCCc3ccccc32)cnc2c(-c3cccc(Cl)c3Cl)c(C)ccc12 [Compound 183],
> 30 µM,< 1 µM,CC(C(=O)Nc1cnc2c(-c3cc(Cl)cc(Cl)c3)cccc2c1N1CCOCC1)c1ccccc1 (centres unmarked) [Compound 9],
> 30 µM,,C=C(C)c1c(NC(=O)c2cccc3ccccc23)cnc2c(-c3cc(Cl)cc(Cl)c3)cccc12 [Compound 200],≤ 50 µM
> 30 µM,< 1 µM,COc1c(NC(=O)c2cccc3ccccc23)cnc2c(-c3cccc(Cl)c3Cl)cccc12 [Compound 62],
> 30 µM,< 1 µM,CN(C)c1c(NC(=O)C2CCOc3ccccc32)cnc2c(-c3cc(Cl)cc(Cl)c3)c(Cl)ccc12 (centres unmarked) [Compound 171],
> 30 µM,< 1 µM,CN(C)c1c(NC(=O)C2CCc3ccccc32)cnc2c(-c3cc(Cl)cc(Cl)c3)c(F)ccc12 (centres unmarked) [Compound 135],

EC50 [1],EC50 [2],SMILES,minimal effective concentration (Ascaridia galli L3)
1 to 10 µM,< 1 µM,O=C(Nc1cnc2c(-c3cccc(Cl)c3Cl)cccc2c1N1CCOCC1)C1CCCc2ccccc21 (centres unmarked) [Compound 19],
> 30 µM,,O=C(Nc1cnc2c(-c3cccc(Cl)c3Cl)cccc2c1O)C1CCc2ccccc21 (centres unmarked) [Compound 111],
> 30 µM,< 1 µM,CN(C)c1c(NC(=O)C2CCCc3ccccc32)cnc2c(-c3cc(Cl)cc(Cl)c3)cccc12 (centres unmarked) [Compound 68],
> 30 µM,< 1 µM,CCOc1c(NC(=O)C2CCCc3ccccc32)cnc2c(-c3cccc(Cl)c3Cl)c(F)ccc12 (centres unmarked) [Compound 119],
> 30 µM,< 1 µM,CCOc1c(NC(=O)C2CCCc3ccccc32)cnc2c(-c3cccc(Cl)c3Cl)cccc12 (centres unmarked) [Compound 55],
> 30 µM,,CC(C)Oc1c(NC(=O)C2CCOc3ccccc32)cnc2c(-c3cc(Cl)cc(Cl)c3)cccc12 (centres unmarked) [Compound 78],
1 to 10 µM,,O=C(Nc1cnc2c(-c3cccc(Cl)c3Cl)cccc2c1N1CCOCC1)[C@H]1CCCc2ccccc21 [Compound 53],
> 30 µM,,O=C(Cc1ccccc1)Nc1cnc2c(-c3cc(Cl)cc(Cl)c3)cccc2c1N1CCOCC1 [Compound 5],
10 to 30 µM,< 1 µM,O=C(Nc1cnc2c(-c3cc(Cl)cc(Cl)c3)c(Cl)ccc2c1N1CCOCC1)[C@H]1CCCc2ccccc21 [Compound 185],
> 30 µM,,CC(C)Nc1c(NC(=O)C2CCCc3ccccc32)cnc2c(-c3cccc(Cl)c3Cl)cccc12 (centres unmarked) [Compound 97],
10 to 30 µM,< 1 µM,CN(C)c1c(NC(=O)c2cccc3ccccc23)cnc2c(-c3cccc(Cl)c3Cl)c(F)ccc12 [Compound 150],
> 30 µM,,COCCN(C)c1c(NC(=O)C2CCOc3ccccc32)cnc2c(-c3cccc(Cl)c3Cl)cccc12 (centres unmarked) [Compound 93],
10 to 30 µM,< 1 µM,O=C(Nc1cnc2c(-c3cc(Cl)cc(Cl)c3)cccc2c1N1CCOCC1)c1cccc2ccccc12 [Compound 74],
> 30 µM,,Cc1c(NC(=O)c2cccc3ccccc23)cnc2c(-c3cc(Cl)cc(Cl)c3)cccc12 [Compound 198],≤ 50 µM
> 30 µM,,CC(C)N(C)c1c(NC(=O)C2CCOc3ccccc32)cnc2c(-c3cccc(Cl)c3Cl)cccc12 (centres unmarked) [Compound 89],≤ 50 µM
> 30 µM,< 1 µM,O=C(Nc1cnc2c(-c3cc(Cl)cc(Cl)c3)c(Cl)ccc2c1N1CCOCC1)C1CCOc2ccccc21 (centres unmarked) [Compound 170],
> 30 µM,,CCOc1c(NC(=O)C2CCc3ccccc32)cnc2c(-c3cc(Cl)cc(Cl)c3)c(F)ccc12 (centres unmarked) [Compound 134],
1 to 10 µM,< 1 µM,O=C(Nc1cnc2c(-c3cccc(Cl)c3Cl)c(F)ccc2c1N1CCOCC1)C1CCc2ccccc21 (centres unmarked) [Compound 141],
> 30 µM,,CC(C)Oc1c(NC(=O)C2CCCc3ccccc32)cnc2c(-c3cc(Cl)cc(Cl)c3)c(F)ccc12 (centres unmarked) [Compound 117],

EC50 [1],EC50 [2],SMILES,minimal effective concentration (Ascaridia galli L3)
1 to 10 µM,< 1 µM,O=C(Nc1cnc2c(-c3cccc(Cl)c3Cl)c(F)ccc2c1N1CCOCC1)C1CCCc2ccccc21 (centres unmarked) [Compound 121],
1 to 10 µM,< 1 µM,CN(C)c1c(NC(=O)C2CCCc3ccccc32)cnc2c(-c3cccc(Cl)c3Cl)cccc12 (centres unmarked) [Compound 13],
> 30 µM,< 1 µM,CCOc1c(NC(=O)C2CCc3ccccc32)cnc2c(-c3cccc(Cl)c3Cl)c(F)ccc12 (centres unmarked) [Compound 139],
> 30 µM,< 1 µM,CCCc1c(NC(=O)c2cccc3ccccc23)cnc2c(-c3cccc(Cl)c3Cl)cccc12 [Compound 187],
10 to 30 µM,,CCNc1c(NC(=O)C2CCCc3ccccc32)cnc2c(-c3cccc(Cl)c3Cl)cccc12 (centres unmarked) [Compound 96],≤ 50 µM
10 to 30 µM,,COCCNc1c(NC(=O)C2CCCc3ccccc32)cnc2c(-c3cccc(Cl)c3Cl)cccc12 (centres unmarked) [Compound 101],
> 30 µM,,C=C(C)c1c(NC(=O)c2cccc3ccccc23)cnc2c(-c3cccc(Cl)c3Cl)cccc12 [Compound 189],
> 30 µM,< 1 µM,COCCN(C)c1c(NC(=O)C2CCCc3ccccc32)cnc2c(-c3cccc(Cl)c3Cl)cccc12 (centres unmarked) [Compound 103],
> 30 µM,< 1 µM,CCc1c(NC(=O)C2CCOc3ccccc32)cnc2c(-c3cccc(Cl)c3Cl)cccc12 (centres unmarked) [Compound 105],
10 to 30 µM,< 1 µM,Cc1ccc2c(N(C)C)c(NC(=O)[C@H]3CCCc4ccccc43)cnc2c1-c1cccc(Cl)c1Cl [Compound 184],
> 30 µM,< 1 µM,CN(C)c1c(NC(=O)[C@H]2CCCc3ccccc32)cnc2c(-c3cc(Cl)cc(Cl)c3)c(Cl)ccc12 [Compound 186],
> 30 µM,,CCc1c(NC(=O)c2ccnc3ccccc23)cnc2c(-c3cccc(Cl)c3Cl)cccc12 [Compound 104],≤ 50 µM
10 to 30 µM,< 1 µM,O=C(Nc1cnc2c(-c3cc(Cl)cc(Cl)c3)cccc2c1N1CCOCC1)C1CCc2ccccc21 (centres unmarked) [Compound 82],
10 to 30 µM,< 1 µM,O=C(Nc1cnc2c(-c3cc(Cl)cc(Cl)c3)c(F)ccc2c1N1CCOCC1)c1cccc2ccccc12 [Compound 146],
> 30 µM,< 1 µM,Cc1ccc2c(N3CCOCC3)c(NC(=O)C3CCOc4ccccc43)cnc2c1-c1cc(Cl)cc(Cl)c1 (centres unmarked) [Compound 174],
> 30 µM,< 10 µM,Cc1c(NC(=O)c2cccc3ccccc23)cnc2c(-c3cccc(Cl)c3Cl)cccc12 [Compound 190],
> 30 µM,,CC(C)Oc1c(NC(=O)C2CCc3ccccc32)cnc2c(-c3cc(Cl)cc(Cl)c3)cccc12 (centres unmarked) [Compound 80],
> 30 µM,< 10 µM,O=C(Nc1cnc2c(-c3cc(Cl)cc(Cl)c3)cccc2c1O)C1CCc2ccccc21 (centres unmarked) [Compound 65],
> 30 µM,< 10 µM,CCOc1c(NC(=O)c2cccc3ccccc23)cnc2c(-c3cc(Cl)cc(Cl)c3)c(F)ccc12 [Compound 144],

SMILES,EC50 [1],EC50 [2],minimal effective concentration (Ascaridia galli L3)
CN(C)c1c(NC(=O)C2CCc3ccccc32)cnc2c(-c3cccc(Cl)c3Cl)c(F)ccc12 (centres unmarked) [Compound 140],10 to 30 µM,< 1 µM,
O=C(Nc1cnc2c(-c3cc(Cl)cc(Cl)c3)c(F)ccc2c1N1CCOCC1)C1CCOc2ccccc21 (centres unmarked) [Compound 126],> 30 µM,< 1 µM,
